Assay results: PubChem BioAssay (NCI)
Values joined by “and” are separate entries in the source; they are usually repeats but may differ in a detail not shown here. Equal entries are not always repeated.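 Five compound concentrations were applied to cells in 96-well plates for 48 hours; endpoints were derived by simple linear interpolation of the resulting dose-response curve. The concentration for 50% growth inhibition is given as GI50. TGI denotes the concentration required for complete inhibition of growth.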

What was measured:
Experiment in all cases: growth of human tumour cells (NCI), 48 h
DU-145 prostate = system: DU-145 prostate
K-562 leukemia = system: K-562 leukemia
MOLT-4 leukemia = system: MOLT-4 leukemia
OVCAR-5 ovarian = system: OVCAR-5 ovarian
SK-MEL-5 melanoma = system: SK-MEL-5 melanoma
UACC-62 melanoma = system: UACC-62 melanoma

## COc1cc(/C=C\c2cc(OC)c(OC)c(OC)c2)cc(N/C=C\C(=O)c2ccc(OC(F)(F)F)cc2)c1OC
DU-145 prostate
  GI50: 4.11 µM
  TGI: > 100 µM
K-562 leukemia
  GI50: 2.93 µM
  TGI: > 100 µM
MOLT-4 leukemia
  GI50: 3.99 µM
  TGI: > 100 µM
OVCAR-5 ovarian
  GI50: 8.2 µM
  TGI: > 100 µM
SK-MEL-5 melanoma
  GI50: 3.74 µM
  TGI: > 100 µM
UACC-62 melanoma
  GI50: 6.86 µM
  TGI: > 100 µM

## COc1ccc(C2CC(c3cccc(Nc4ccnc5cc(Cl)ccc45)c3)=NN2C=O)cc1 (configuration not stated)
DU-145 prostate
  GI50: 0.978 µM
  TGI: > 34.9 µM
K-562 leukemia
  GI50: 0.33 µM
  TGI: > 100 µM
MOLT-4 leukemia
  GI50: 0.487 µM
  TGI: > 100 µM
OVCAR-5 ovarian
  GI50: 7.61 µM
  TGI: > 100 µM
SK-MEL-5 melanoma
  GI50: 0.403 µM
  TGI: 25.8 µM
UACC-62 melanoma
  GI50: 0.532 µM
  TGI: 54.8 µM

## COC(=O)c1n[nH]c(C)c1N=NN(C)CCC#N
DU-145 prostate
  TGI: 51.6 µM
K-562 leukemia
  TGI: 60 µM
MOLT-4 leukemia
  TGI: 15.1 µM
SK-MEL-5 melanoma
  TGI: 74.5 µM
UACC-62 melanoma
  TGI: 35.2 µM

## c1cc(NNc2cccc(-c3nn[nH]n3)c2)cc(-c2nn[nH]n2)c1
DU-145 prostate
  TGI: > 100 µM
K-562 leukemia
  TGI: > 100 µM
OVCAR-5 ovarian
  TGI: > 100 µM
SK-MEL-5 melanoma
  TGI: > 100 µM
UACC-62 melanoma
  TGI: > 100 µM

## Nc1nccc(-c2c(-c3ccc(F)cc3)ncn2C2CCNCC2)n1
DU-145 prostate
  GI50: 7.77 µM and 3.96 µM
  TGI: > 25 µM
K-562 leukemia
  GI50: 5.92 µM and 2.92 µM
  TGI: > 25 µM
MOLT-4 leukemia
  GI50: 17.8 µM and 7.16 µM
  TGI: > 25 µM
OVCAR-5 ovarian
  GI50: 9.62 µM and 5.81 µM
  TGI: > 25 µM
SK-MEL-5 melanoma
  GI50: 1.74 µM and 4.23 µM
  TGI: > 19.9 µM
UACC-62 melanoma
  GI50: 11.1 µM and 4.61 µM
  TGI: > 25 µM

## CCN(CC)c1ccc(/C=N/NC(=O)CSc2nc3ccccc3c(=O)n2CCc2ccc(S(N)(=O)=O)cc2)c(O)c1
DU-145 prostate
  GI50: 1.82 µM
  TGI: > 100 µM
K-562 leukemia
  GI50: 1.75 µM
  TGI: > 100 µM
MOLT-4 leukemia
  GI50: 0.653 µM
  TGI: > 100 µM
OVCAR-5 ovarian
  GI50: 4.4 µM
  TGI: > 100 µM
SK-MEL-5 melanoma
  GI50: 2.49 µM
  TGI: 14.9 µM
UACC-62 melanoma
  GI50: 1.73 µM
  TGI: 6.37 µM

## CC(C)c1[nH]nc(C(N)=O)c1N=NN(C)C
DU-145 prostate
  TGI: > 100 µM
K-562 leukemia
  TGI: > 100 µM
MOLT-4 leukemia
  TGI: > 100 µM
SK-MEL-5 melanoma
  TGI: > 100 µM
UACC-62 melanoma
  TGI: > 100 µM

## CCN(Cc1ccc(C)cc1)c1ccc(CO)c(Cl)c1
DU-145 prostate
  GI50: 12.7 µM
  TGI: 27.4 µM
K-562 leukemia
  GI50: 2 µM
  TGI: > 50.5 µM
MOLT-4 leukemia
  GI50: 17 µM
  TGI: 45.4 µM
OVCAR-5 ovarian
  GI50: 0.171 µM
  TGI: 0.689 µM
SK-MEL-5 melanoma
  GI50: 3.84 µM
  TGI: 17.7 µM
UACC-62 melanoma
  GI50: 0.0933 µM
  TGI: 0.684 µM

## c1ccc2sc(SCCSc3nc4ccccc4s3)nc2c1
DU-145 prostate
  TGI: > 100 µM
K-562 leukemia
  TGI: > 100 µM
OVCAR-5 ovarian
  TGI: > 100 µM
UACC-62 melanoma
  TGI: > 100 µM

## NNC(=S)N/N=C(\C(=O)Nc1cccc(O)c1)C1C(=O)NC(=S)NC1=O
K-562 leukemia
  TGI: > 100 µM
MOLT-4 leukemia
  TGI: > 100 µM
OVCAR-5 ovarian
  TGI: > 100 µM
SK-MEL-5 melanoma
  TGI: > 100 µM
UACC-62 melanoma
  TGI: > 100 µM

## CC(C)(Br)C(=O)N1CCN(C(c2ccccc2)c2ccccc2)CC1
DU-145 prostate
  TGI: > 100 µM
K-562 leukemia
  TGI: > 100 µM
MOLT-4 leukemia
  TGI: > 100 µM
OVCAR-5 ovarian
  TGI: > 100 µM
SK-MEL-5 melanoma
  TGI: > 100 µM
UACC-62 melanoma
  TGI: > 100 µM

## COc1ccc2c(c1OC)C[C@@H]1c3c(cc4c(c3-2)OCO4)CCN1C
DU-145 prostate
  TGI: > 100 µM
K-562 leukemia
  TGI: 56.6 µM
MOLT-4 leukemia
  TGI: 47.4 µM
OVCAR-5 ovarian
  TGI: > 100 µM
SK-MEL-5 melanoma
  TGI: 38.1 µM
UACC-62 melanoma
  TGI: 43.8 µM

## COc1ccc(/C=C(/C#N)C(N)=O)c(OC)c1
DU-145 prostate
  TGI: > 100 µM
K-562 leukemia
  TGI: > 100 µM
MOLT-4 leukemia
  TGI: > 100 µM
OVCAR-5 ovarian
  TGI: > 100 µM
SK-MEL-5 melanoma
  TGI: > 100 µM
UACC-62 melanoma
  TGI: > 100 µM
